Earlier results on 1 molecule are cited in paper PMC11756063, “The fibronectin-targeting PEG-FUD imaging probe shows enhanced uptake during fibrogenesis in experimental lung fibrosis” (Respiratory Research, 2025).

The data set deals with fibrotic mouse lung. To be noted: ref [9], [13], [65]. The text has this:
This study has potential impact for the field of molecular imaging of lung fibrosis, as methods that permit more precise and intricate assessment of disease progression are needed in clinical practice. In pulmonary fibrosis, potential molecular imaging targets being developed represent various disease mechanisms, such as activity of pathogenic fibroblasts and macrophages, ECM deposition, as well as detection of pro-fibrotic integrins.

Turning to `OC[C@H]1OC(O)[C@H]([18F])[C@@H](O)[C@@H]1O` (stereo partly shown) [[^18F]FDG, [^18F]-fluorodeoxyglucose], the “pattern of uptake over the bleomycin model” value is on record as “peak uptake in the early phase of the bleomycin model that decline during the established phase”.
